Where a name gives a salt, the structure may show the parent alone.
How the values were obtained:
L-02 normal liver cell = assay: MTT cell growth inhibition assay, L-02 normal liver cells; type: cell-based; conditions: Homo sapiens, mean ± SD of three experiments
Text: (§1) Initially, we designed and synthesised seven compounds—9a and 12a1–12a6—and evaluated the anticancer activity and aqueous solubility. We evaluated the cytotoxic effects of these stilbene nitrile analogues against a panel of four human cancer cell lines (HCT-116, BEL-7402, MCF-7 and AGS) and two human non-cancerous normal cell lines (L-02 and MCF-10A), using CA-4 as a control. The compounds were screened for aqueous solubility in 0.01 M PBS using a high throughput UV method. […] It is possible that the size of the nitrogen heterocycle had little effect on the activity of these compounds. […] The aqueous solubility of all the compounds 12a1–12a6 was higher than that of 9a, particularly that of 12a1 and 12a2 containing piperazine rings. […] Of the six compounds with improved aqueous solubility, 12a1 had the best activity.
(§2) All human cell lines were used in this study. AGS gastric cancer cell, BEL-7402 liver cancer cell, HCT-116 colorectal cancer cell, L-02 normal liver cell, MCF-7 breast cancer cell, and MCF-10A normal breast cell were initially purchased from American Type Culture Collection (ATCC, Manassas, VA, USA). RPMI-1640 media, DMEM and FBS, were provided by Gibco Company. The cells were maintained in DMEM or RPMI-1640, supplemented with 10% FBS, 100 IU/mL penicillin and […] streptomycin, and at 37 °C in a humidified atmosphere containing 5% CO2.
(§3) The experiment was carried out according to the method of reference.

[1] = system: HCT-116 colorectal cancer cell; assay: MTT cell growth inhibition assay, HCT-116 colorectal cancer cells; type: cell-based, human; conditions: Homo sapiens, HCT-116; MTT; mean ± SD of three experiments
Text: as §1, §2, §3

[2] = system: BEL-7402 liver cancer cell; assay: MTT cell growth inhibition assay, BEL-7402 liver cancer cells; type: cell-based; conditions: Homo sapiens, mean ± SD of three experiments, read-out: IC50 BEL-7402 Hepatoma Cells
Text: as §1, §2, §3

MCF-7 breast cancer cell = assay: MTT cell growth inhibition assay, MCF-7 breast cancer cells; type: cell-based; conditions: Homo sapiens, MCF7, mean ± SD of three experiments
Text: as §1, §2, §3

[3] = Aqueous solubility in 0.01 M PBS, high throughput UV method; type: physicochemical; conditions: for solubility thermodynamic at 1.5 h: aqueous phosphate buffer, aqueous buffer, sodium phosphate buffer 0.01 M, pH 7.4, 22 ± 2 °C, mean ± SD
Text: as §1
The aqueous solubility was determined as a previously reported procedure. Put simply, a certain amount of powdered compound was placed in a 2 mL centrifuge tube and mixed with an appropriate volume of aqueous phosphate buffer (10 mM, pH 7.4) to make the whole system supersaturated. The mixtures were sonicated (KQ5200DE numerical control ultrasonic cleaner, Kunshan Ultrasonic Instrument Co., Ltd., SuZhou, China) for 20 min. After sonication, the mixture was allowed to equilibrate at RT (22 ± 2 °C) for 1.5 h with vortex shaking (1200 rpm). Then centrifuged at 3000 rpm for 15 min (1-14k, sigma, Darmstadt, Germany), the supernatant was filtered with a 0.22 µM filter membrane. And then, take 150 µL of filtrate and add it to 96-well UV plate with triplicate. Draw 150 μL of blank solution was added into plate as blank control. The 96-well UV plate prepared above was read on a Synergy HTX Multifunctional Microplate Reader (BioTek, Vermont, USA) at 294 nm. The absorbance of the sample was corrected according to the UV response of the sample and blank solution, and the corrected UV response values were used for solubility calculations by bringing into the standard curve of the compound. […]
1.5. Solubility Assessment
The aqueous solubility was determined as previously reported using the high throughput solubility screens procedure published by Bruno Bard et al [9. 10]. Put simply, a certain amount of powdered compound was placed in a 2 ml centrifuge tube and mixed with an appropriate volume of aqueous phosphate buffer (0.01 M, pH 7.4) to make the whole system supersaturated. The mixtures were sonicated (KQ5200DE numerical control ultrasonic cleaner, Kunshan Ultrasonic Instrument Co., Ltd., China) for 20 min. After sonication, the mixture was allowed to equilibrate at room temperature (22 ± 2°C) for 1.5 h with vortex shaking (1200 rpm). Then the centrifuge tube was put into the centrifuge (1-14k, sigma, Germany), centrifuged with 3000 rpm for 15 minutes, 0.22 µM filter membrane filtration supernatant, then take 150 µl filtrate and add it to 96-well UV plate, with three well for each compound. Draw 150 μL blank solution were added into 96 well-plate as blank control. The 96-well UV […]
plate prepared above was read on a SynergyHTX Multifunctional microplate reader (BioTek, USA) at 338 nm (compounds 12a-12d and 15-20) or 370 nm (compounds 9a-d). The absorbance of the sample was corrected according to the UV response of the sample and blank solution, and the corrected UV responses value were used for solubility calculations by bring into the standard curve of the compound. […]

[4] = system: MCF-10A normal breast cell; assay: MTT cell growth inhibition assay, MCF-10A normal breast cells; type: cell-based; conditions: Homo sapiens, mean ± SD of three experiments, read-out: IC50 MCF-10A Normal Breast Epithelial Cells
Text: as §1, §2, §3

AGS gastric cancer cell = assay: MTT cell growth inhibition assay, AGS gastric cancer cells; type: cell-based; conditions: Homo sapiens, mean ± SD of three experiments
Text: as §1, §2, §3

SMILES | IC50 [1] [µM] | IC50 [2] [µM] | IC50 (MCF-7 breast cancer cell) [µM] | solubility thermodynamic at 1.5 h [3] [µg/mL] | IC50 (AGS gastric cancer cell) [µM] | melting point [°C] | Increase of aqueous solubility compared with 9a ([3]; 0.01 M PBS, ratio to 9a) | Water solubility (in words) ([3]; Figure 1) | Decrease of aqueous solubility compared with 9a ([3]; ratio to 9a) | IC50 (L-02 normal liver cell) [µM] | IC50 [4] [µM]
CCN1CCN(CC(=O)Nc2ccc(/C=C(\C#N)c3cc(OC)c(OC)c(OC)c3)c(C)c2)CC1 [12b2] | 6.68 ± 1.1 | 7.42 ± 1.76 | 19.8 ± 3.16 | 253 ± 30.7 | 15 ± 2.32 |  |  |  |  | 22.1 ± 2.05 | 20.2 ± 2.4
COc1ccc(/C(C#N)=C/c2ccc(N)cc2)cc1OC [9c] | 4.05 ± 0.72 | 3.91 ± 0.8 | 62.1 ± 8.12 | 4.5 ± 0.6 | 19.5 ± 3.61 |  |  |  |  | 15.7 ± 1.79 | > 100
CCN1CCN(CC(=O)Nc2ccc(/C=C(\C#N)c3cc(OC)c(OC)c(OC)c3)cc2)CC1 [12a2] | 5.37 ± 0.03 | 5.1 ± 0.37 | 14.9 ± 1.32 | 26940 ± 78.8 | 11.9 ± 2.62 |  |  |  |  | 16.6 ± 1.14 | 25.8 ± 3.73
COc1cc(/C(C#N)=C/c2ccc(N)cc2C)cc(OC)c1OC [9b] | 0.16 ± 0.02 | 0.16 ± 0.02 | > 100 | 1.2 ± 0.3 | 0.8 ± 0.14 | 224 to 230 |  |  | nine times | 6.01 ± 1.35 | > 100
COc1cc(/C(C#N)=C/c2ccc(NC(=O)CN3CCOCC3)cc2)cc(OC)c1OC [12a5] | 6.87 ± 1.04 | 6.74 ± 1.97 | 48.3 ± 5.41 | 15 ± 2.6 | 29.1 ± 1.98 |  |  |  |  | 40.7 ± 5.18 | > 100
COc1ccc(/C(C#N)=C/c2ccc(N)cc2C)cc1OC [9d, (Z)-3-(4-Amino-2-methylphenyl)-2-(3,4-dimethoxyphenyl)acrylonitrile monohydrochloride] | 5.86 ± 0.77 | 9.72 ± 0.9 | > 100 | 1.7 ± 0.2 | 16.4 ± 0.42 |  |  |  |  | 62.1 ± 10.6 | > 100
COc1cc(/C(C#N)=C/c2ccc(NC(=O)CN3CCCC3)cc2)cc(OC)c1OC [12a3] | 2.56 ± 0.58 | 4.63 ± 0.89 | 12.6 ± 0.91 | 67.4 ± 2.9 | 17.9 ± 1.75 |  |  |  |  | 11 ± 0.82 | 16.9 ± 1.24
COc1cc(/C(C#N)=C/c2ccc(NC(=O)CN3CCN(C)CC3)cc2C)cc(OC)c1OC [12b1] | 5.25 ± 1.6 | 6.62 ± 2.09 | 22.5 ± 3.6 | 104 ± 19.8 | 15.6 ± 0.73 |  |  |  |  | 20.3 ± 1.08 | 15.2 ± 0.66
CCN(CC)CC(=O)Nc1ccc(/C=C(\C#N)c2cc(OC)c(OC)c(OC)c2)cc1 [12a4] | 5.64 ± 0.15 | 3.81 ± 0.43 | 13.3 ± 2.59 | 15.5 ± 2.3 | 12.6 ± 1.79 |  |  |  |  | 69.4 ± 7.3 | 24.8 ± 4.44
COc1ccc(/C(C#N)=C/c2ccc(NC(=O)CN3CCN(C)CC3)cc2)cc1OC [12c1] | 4.4 ± 0.79 | 8.95 ± 1.37 | 33.9 ± 2.22 | 124 ± 8.7 | 29.1 ± 1.98 |  |  |  |  | 23.5 ± 3.87 | > 100

More lines, main results first:

IC50 [1] [µM] | IC50 [2] [µM] | IC50 (MCF-7 breast cancer cell) [µM] | solubility thermodynamic at 1.5 h [3] [µg/mL] | IC50 (AGS gastric cancer cell) [µM] | melting point [°C] | Increase of aqueous solubility compared with 9a ([3]; 0.01 M PBS, ratio to 9a) | Water solubility (in words) ([3]; Figure 1) | Decrease of aqueous solubility compared with 9a ([3]; ratio to 9a) | SMILES | IC50 (L-02 normal liver cell) [µM] | IC50 [4] [µM]
10.3 ± 1.07 | 15 ± 2.32 | 15.6 ± 1.87 | 504 ± 117 | 22.6 ± 1.45 |  |  |  |  | COc1cc(/C(C#N)=C/c2ccc(NC(=O)CN3CCN[C@@H](C)C3)cc2)cc(OC)c1OC [compound 17] | 28.2 ± 5.16 | 17.4 ± 3.56
6.67 ± 2.38 | 9.53 ± 0.93 | 33.4 ± 0.84 | 124 ± 8.7 | 40 ± 3.81 |  |  |  |  | COc1ccc(/C(C#N)=C/c2ccc(NC(=O)CN3CCN(C)CC3)cc2C)cc1OC [12d1] | 42.4 ± 1.91 | 54.5 ± 13.2
10.5 ± 2.32 | 6.53 ± 1.67 | 17.3 ± 2.31 | 111 ± 12.3 | 15.2 ± 0.76 | 200 to 202 |  |  |  | COc1cc(/C(C#N)=C/c2ccc(NC(=O)CN3CCNC[C@H]3C)cc2)cc(OC)c1OC.Cl [compound 20] | 25 ± 2.94 | 17.8 ± 2.78
21.6 ± 2.87 | 10.1 ± 2.18 | 31.1 ± 4.38 | 85.1 ± 13.2 | 48.8 ± 2.44 |  |  |  |  | CCN1CCN(CC(=O)Nc2ccc(/C=C(\C#N)c3ccc(OC)c(OC)c3)cc2)CC1 [12c2] | 22.1 ± 2.64 | 29.7 ± 4.56
8.32 ± 0.3 | 14.7 ± 1.09 | 12.2 ± 0.93 | 8620 ± 525 | 15.3 ± 3.02 |  |  |  |  | COc1cc(/C(C#N)=C/c2ccc(NC(=O)CN3CCN(C(C)C)CC3)cc2)cc(OC)c1OC.Cl [compound 15] | 22.6 ± 1.36 | 21 ± 4.73
12.6 ± 1.74 | 14.4 ± 2.38 | 31.2 ± 4.73 | 2500 ± 266 | 14.8 ± 3.37 |  | more than 231 times |  |  | COc1cc(/C(C#N)=C/c2ccc(NC(=O)CN3CCN(CCOCCO)CC3)cc2)cc(OC)c1OC [compound 16] | 23.4 ± 3.61 | 18.9 ± 2.95
 |  |  |  |  | 196 to 200 |  |  |  | COc1cc(/C(C#N)=C/c2ccc(NC(=O)CN3CCN[C@@H](C)C3)cc2)cc(OC)c1OC (as salt: hydrochloride) [compound 17] |  | 
0.61 ± 0.16 |  |  | 4 |  |  |  | Poor water solubility |  | COc1cc(/C(C#N)=C/c2ccc(C)cc2)cc(OC)c1OC [compound 2, reference compound] |  | 
 |  |  |  |  | 240 to 243 |  |  |  | COc1cc(/C(C#N)=C/c2ccc(NC(=O)CN3CCN(CCOCCO)CC3)cc2)cc(OC)c1OC (as salt: hydrochloride) [compound 16] |  | 
9.73 ± 0.9 | 4.16 ± 0.97 | 12.8 ± 2.96 | 1050 ± 67.3 | 11.5 ± 2.32 |  |  |  |  | COc1cc(/C(C#N)=C/c2ccc(NC(=O)CN3CCNC(C)C3)cc2)cc(OC)c1OC.Cl (centres unmarked) [compound 18] | 28.4 ± 4.52 | 14.1 ± 3.71
24 ± 2.46 | 21.3 ± 0.71 | 28.7 ± 3.14 | 85.1 ± 13.2 | 15.3 ± 3.86 |  |  |  |  | CCN1CCN(CC(=O)Nc2ccc(/C=C(\C#N)c3ccc(OC)c(OC)c3)c(C)c2)CC1 [12d2] | 25.8 ± 2.56 | 38.4 ± 4.48
8.18 ± 0.67 | 4.72 ± 0.99 | 15.4 ± 1.88 | 79.5 ± 11.1 | 5.58 ± 2.33 | 200 to 202 |  |  |  | COc1cc(/C(C#N)=C/c2ccc(NC(=O)CN3CCNC[C@@H]3C)cc2)cc(OC)c1OC.Cl [compound 19] | 23 ± 2.05 | 16.3 ± 2.14

Reference: publication PMC9963121, “Development of Combretastatin A-4 Analogues as Potential Anticancer Agents with Improved Aqueous Solubility” (Molecules, 2023)
